According to patent US20240109917A1 (ACTELION PHARMACEUTICALS LTD, priority 2020, published 2024):
Where two headings read alike, the source gives them in different places.

Key:
PDGFRβ = PDGFRβ (Rattus norvegicus (Rat), UniProt Q05030); assay: PDGFRβ Cellular Assay (PDGFRb P-Y751 HTRF in A10 cells stimulated with PDGF-BB); type: cell-based
Method in brief: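 Phospho-Y751 PDGFRβ was measured by HTRF in lysates of A10 rat cells. Cells received compound for 3 hours before PDGF-BB stimulation (100 ng/mL working stock).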

[1] = target: Tb-labeled inactive PDGFRβ (Homo sapiens (Human), UniProt P09619); assay: PDGFRβ LanthaScreen Assay; type: binding; settings: read-out: PDGFR Lantha IC50
Sequence of Tb-labeled inactive PDGFRβ (P09619 33-1106): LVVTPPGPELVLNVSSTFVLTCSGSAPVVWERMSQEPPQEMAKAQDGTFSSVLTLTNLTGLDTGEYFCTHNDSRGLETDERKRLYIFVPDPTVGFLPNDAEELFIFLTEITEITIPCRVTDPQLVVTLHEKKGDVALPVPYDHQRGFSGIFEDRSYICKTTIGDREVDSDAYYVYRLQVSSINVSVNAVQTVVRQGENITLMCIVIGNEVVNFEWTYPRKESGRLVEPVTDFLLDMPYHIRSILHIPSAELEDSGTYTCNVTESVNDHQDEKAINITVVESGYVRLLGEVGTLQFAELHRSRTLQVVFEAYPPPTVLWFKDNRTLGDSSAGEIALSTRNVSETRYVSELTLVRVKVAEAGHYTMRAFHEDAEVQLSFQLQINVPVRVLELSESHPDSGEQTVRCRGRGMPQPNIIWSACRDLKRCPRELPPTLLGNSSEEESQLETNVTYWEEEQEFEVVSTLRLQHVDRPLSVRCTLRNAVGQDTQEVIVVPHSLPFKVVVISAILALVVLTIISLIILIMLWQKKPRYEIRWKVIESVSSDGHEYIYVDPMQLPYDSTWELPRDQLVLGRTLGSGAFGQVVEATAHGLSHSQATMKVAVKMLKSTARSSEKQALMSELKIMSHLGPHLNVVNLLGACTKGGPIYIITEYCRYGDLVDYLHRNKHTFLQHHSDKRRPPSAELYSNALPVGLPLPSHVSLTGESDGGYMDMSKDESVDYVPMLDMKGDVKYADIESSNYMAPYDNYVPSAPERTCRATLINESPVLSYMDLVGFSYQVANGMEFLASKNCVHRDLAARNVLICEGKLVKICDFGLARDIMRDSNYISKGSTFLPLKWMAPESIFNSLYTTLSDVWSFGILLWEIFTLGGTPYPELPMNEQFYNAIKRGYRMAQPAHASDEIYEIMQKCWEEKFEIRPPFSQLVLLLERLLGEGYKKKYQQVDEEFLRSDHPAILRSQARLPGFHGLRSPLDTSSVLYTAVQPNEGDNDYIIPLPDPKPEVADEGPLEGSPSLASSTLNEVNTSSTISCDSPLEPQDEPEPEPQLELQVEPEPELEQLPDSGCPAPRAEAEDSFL

Sequence of PDGFRβ (Q05030 32-1097): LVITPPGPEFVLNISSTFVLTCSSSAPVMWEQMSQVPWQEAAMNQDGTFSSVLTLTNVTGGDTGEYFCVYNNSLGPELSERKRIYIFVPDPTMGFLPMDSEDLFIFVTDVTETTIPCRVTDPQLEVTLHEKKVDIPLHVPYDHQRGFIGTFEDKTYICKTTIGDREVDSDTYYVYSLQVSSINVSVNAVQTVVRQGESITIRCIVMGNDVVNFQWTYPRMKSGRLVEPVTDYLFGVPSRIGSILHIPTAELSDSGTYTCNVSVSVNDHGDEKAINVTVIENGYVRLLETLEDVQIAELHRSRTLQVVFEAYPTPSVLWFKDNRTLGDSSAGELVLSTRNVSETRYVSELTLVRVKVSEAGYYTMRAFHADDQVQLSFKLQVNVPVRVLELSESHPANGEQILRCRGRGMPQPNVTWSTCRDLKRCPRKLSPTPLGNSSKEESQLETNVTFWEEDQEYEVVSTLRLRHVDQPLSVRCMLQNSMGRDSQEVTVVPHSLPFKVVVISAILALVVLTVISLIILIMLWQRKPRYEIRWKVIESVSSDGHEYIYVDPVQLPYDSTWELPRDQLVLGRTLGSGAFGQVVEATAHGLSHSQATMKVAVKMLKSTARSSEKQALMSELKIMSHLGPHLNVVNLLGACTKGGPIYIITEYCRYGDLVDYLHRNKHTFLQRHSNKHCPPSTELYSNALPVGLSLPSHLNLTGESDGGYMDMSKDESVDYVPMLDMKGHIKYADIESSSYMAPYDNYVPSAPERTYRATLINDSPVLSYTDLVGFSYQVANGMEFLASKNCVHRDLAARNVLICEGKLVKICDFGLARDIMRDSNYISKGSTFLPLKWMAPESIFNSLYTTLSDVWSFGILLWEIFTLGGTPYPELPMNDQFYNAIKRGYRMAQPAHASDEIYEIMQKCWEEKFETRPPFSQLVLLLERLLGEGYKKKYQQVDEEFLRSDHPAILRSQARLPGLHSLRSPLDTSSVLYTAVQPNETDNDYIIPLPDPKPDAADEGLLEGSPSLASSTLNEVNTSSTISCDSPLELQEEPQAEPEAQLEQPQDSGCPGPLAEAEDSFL

Row | Structure (SMILES) | IC50 (PDGFRβ; read-out: PDGFR Cellular IC50) [nM] | IC50 [1] [nM] | IC50 (PDGFRβ; PDGFR Cellular IC50) [nM]
1 | Cc1ncc(NC(=O)CN2CC3(CCOCC3)C2)cc1NC(=O)c1cnn2cc(-c3cnn4c3OCCC4)sc12 [Example 406, N-(5-(2-(7-oxa-2-azaspiro[3.5]nonan-2-yl)acetamido)-2-methylpyridin-3-yl)-2-(6,7-dihydro-5H-pyrazolo[5,1-b][1,3]oxazin-3-yl)pyrazolo[5,1-b]thiazole-7-carboxamide] | 18.9 | 2.3 | 
2 | COc1ncccc1-c1cn2ncc(C(=O)Nc3cc(NC(=O)CN4C[C@H](C)O[C@@H](C)C4)cnc3C)c2s1 (relative stereo) [Example 384, N-(5-(2-(trans-2,6-dimethylmorpholino)acetamido)-2-methylpyridin-3-yl)-2-(2-methoxypyridin-3-yl)pyrazolo[5,1-b]thiazole-7-carboxamide] | 4.3 | 2.3 | 
3 | Cc1ncc(NC(=O)CN2CCC[C@@H]2C)cc1NC(=O)c1cnn2cc(-c3cnn(C)c3)sc12 [Example 27, (S)-2-(1-methyl-1H-pyrazol-4-yl)-N-(2-methyl-5-(2-(2-methyl-pyrrolidin-1-yl)acetamido)pyridin-3-yl)pyrazolo[5,1-b]thiazole-7-carboxamide] | 6.3 | 16.2 | 
4 | COc1ncccc1-c1cn2ncc(C(=O)Nc3cc(NC(=O)CN4C[C@H](CO)OC(C)(C)C4)cnc3C)c2s1 [Example 379, (R)—N-(5-(2-(6-(hydroxymethyl)-2,2-dimethylmorpholino)acetamido)-2-methylpyridin-3-yl)-2-(2-methoxypyridin-3-yl)pyrazolo[5,1-b]thiazole-7-carboxamide] | 9.2 | 2.7 | 
5 | COCCn1cc(-c2cn3ncc(C(=O)Nc4cc(NC(=O)CN5CCCCCC5)cnc4C)c3s2)cn1 [Example 339, N-(5-(2-(azepan-1-yl)acetamido)-2-methylpyridin-3-yl)-2-(1-(2-methoxyethyl)-1H-pyrazol-4-yl)pyrazolo[5,1-b]thiazole-7-carboxamide] | 2.6 | 3 | 
6 | Cc1ncc(NC(=O)CN2C[C@H](C)O[C@@H](C)C2)cc1NC(=O)c1cnn2cc(-c3cnc(N)c(F)c3)sc12 (relative stereo) [Example 372, 2-(6-amino-5-fluoropyridin-3-yl)-N-(5-(2-(trans-2,6-dimethylmorpholino)acetamido)-2-methylpyridin-3-yl)pyrazolo[5,1-b]thiazole-7-carboxamide] | 21.2 | 7.7 | 
7 | Cc1ncc(NC(=O)CN2CC(C)(C)C2)cc1NC(=O)c1cnn2cc(-c3cccnc3C)sc12 [Example 390, N-(5-(2-(3,3-dimethylazetidin-1-yl)acetamido)-2-methylpyridin-3-yl)-2-(2-methylpyridin-3-yl)pyrazolo[5,1-b]thiazole-7-carboxamide] | 5.5 | 10.1 | 
8 | Cc1ncc(NC(=O)CN2CCCC23CCC3)cc1NC(=O)c1cnn2cc(-c3cnn(CCO)c3)sc12 [Example 29, N-(5-(2-(5-azaspiro[3.4]octan-5-yl)acetamido)-2-methylpyridin-3-yl)-2-(1-(2-hydroxyethyl)-1H-pyrazol-4-yl)pyrazolo[5,1-b]thiazole-7-carboxamide] | 5 | 3.4 | 
9 | COCCCc1cn2ncc(C(=O)Nc3cc(C(=O)NCCN4CCCC4(C)C)cnc3C)c2s1 [Example 360, N-(5-((2-(2,2-dimethylpyrrolidin-1-yl)ethyl)carbamoyl)-2-methylpyridin-3-yl)-2-(3-methoxypropyl)pyrazolo[5,1-b]thiazole-7-carboxamide] |  | 100 | 59.2
10 | COc1cnccc1-c1cn2ncc(C(=O)Nc3cc(NC(=O)CN4CC(C)(C)C4)cnc3C)c2s1 [Example 399, N-(5-(2-(3,3-dimethylazetidin-1-yl)acetamido)-2-methylpyridin-3-yl)-2-(3-methoxypyridin-4-yl)pyrazolo[5,1-b]thiazole-7-carboxamide] | 1.3 | 1.1 | 
11 | COC/C=C/c1cn2ncc(C(=O)Nc3cc(C(=O)NCCN4CCCC4(C)C)cnc3C)c2s1 [Example 361, (E)-N-(5-((2-(2,2-dimethylpyrrolidin-1-yl)ethyl)carbamoyl)-2-methylpyridin-3-yl)-2-(3-methoxyprop-1-en-1-yl)pyrazolo[5,1-b]thiazole-7-carboxamide] |  | 19 | 14.9
